# Experiments:
# [1] = Lipophilicity log D (pH 7.4), shake-flask method; assay type: physicochemical; conditions: 1-octanol / PBS pH 7.4
# Experimental: The lipophilic/hydrophilic character of [^61Cu]Cu-NODAGA-PSMA I&T was assessed by the determination of the distribution coefficient (D), expressed as log D at physiological pH (log D (pH 7.4)), between an aqueous and an organic phase following the “shake-flask” method. [^61Cu]Cu-NODAGA-PSMA I&T (1 μM) was added to a 50:50 pre-saturated mixture solution of 1-octanol and phosphate-buffered saline (PBS pH 7.4). The mixture was vortexed for 30 min and then centrifuged at 3000 rpm to achieve phase separation. Aliquots from each phase were collected and measured in a gamma counter. The distribution coefficient was calculated as the average logarithmic values of the ratio between the radioactivity in the organic and the PBS phase.
# [2] = Shelf life at room temperature by reverse-phase radio-HPLC; assay type: physicochemical
# Experimental: The shelf life of [^61Cu]Cu-NODAGA-PSMA I&T was assessed at room temperature in the reaction solution and the injection formulation at various time points after EoS. At pre-defined time points (up to 12 h), an aliquot was analyzed by radio-HPLC. The radiochemical purity was determined by analytical reverse-phase radio-HPLC using a Macherey Nagel Nucleodur ISIS C18 (5 μm, 250×4.6 mm) column. The results indicated a stability of over 95% up to 12 hours (Table 22).
smiles,measurement,setting,value
O=C([O-])CN1CCN(CC(=O)[O-])CCN([C@H](CCC(=O)N[C@H](Cc2ccc(O)c(I)c2)C(=O)N[C@H](Cc2ccccc2)C(=O)N[C@H](CCCCNC(=O)CCCCCCC(=O)NCCCC[C@H](NC(=O)N[C@@H](CCC(=O)O)C(=O)O)C(=O)O)C(=O)O)C(=O)O)CC1.[61Cu+2] [[^61Cu]Cu-NODAGA-PSMA I&T],log D (pH 7.4),[1],−2.95±0.08
same,RCP by HPLC,[2]; Injection formulation,99.0 ± 0.2%
same,RCP up to 3 h (n = 3),[2]; Injection formulation,99.5 ± 0.2%
same,RCP up to 6 h (n = 3),[2]; Injection formulation,99.0 ± 0.5%
same,RCP up to 9 h (n = 3),[2]; Injection formulation,99.1 ± 0.5%
same,RCP up to 12 h (n = 2),[2]; Injection formulation,99.7 ± 0.41%
same,RCP by HPLC,[2]; Reaction solution,99.4 ± 0.4%
same,RCP up to 3 h (n = 3),[2]; Reaction solution,99.6 ± 0.2%
same,RCP up to 6 h (n = 3),[2]; Reaction solution,99.5 ± 0.7%
same,RCP up to 9 h (n = 3),[2]; Reaction solution,99.1 ± 0.8%
same,RCP up to 12 h (n = 2),[2]; Reaction solution,99.7 ± 0.1%
same,stability,[2]; up to 12 hours,over 95%

# Reference: patent US20260241046A1, “PROSTATE-SPECIFIC MEMBRANE ANTIGEN RECEPTOR-TARGETING RADIOPHARMACEUTICALS AND USES THEREOF” (Nuclidium AG, priority 2024, published 2026)
